Measured values reported in patent US9216968B2, “Heterocyclic derivative and pharmaceutical drug” (NIPPON SHINYAKU CO., LTD., priority 2011, dated 2015).
Where a name gives a salt, the structure may show the parent alone.

What was measured:
[1] = target: human mPGES-1 (Homo sapiens (Human), UniProt O14684); test: mPGES-1 inhibiting activity (microsome fractions, PGE2 by HTRF); type: biochemical; conditions: microsomes from CHO-K1 cells transfected with human mPGES-1; PGH2 1 μM, 4° C., 60 seconds; read-out: mPGES-1 Inhibition IC50
Outline: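 PGE2 formation read by HTRF after 60 s at 4 °C with 1 μM PGH2 substrate, following 20 min compound preincubation (1% DMSO) with human mPGES-1 microsomes from transfected CHO-K1 cells. Buffer: potassium phosphate, reduced glutathione, pH 7.4; IC50 from activity relative to enzyme-free blank.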

[2] = system: A549 cells; test: Inhibition of PGE2 production in A549 cell (IL-1β stimulated); type: cell-based, human; conditions: Homo sapiens, A549, 24 h, IL-1β 5 ng/well, PGE2 in culture medium
Outline: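 After IL-1β (5 ng/well) stimulation for 24 h at 37 °C, following a 60-min compound pretreatment in RPMI with 3% FBS, medium PGE2 (HTRF) and PGF2α (EIA) from human A549 cells were quantified. 100% activity set as IL-1β-induced minus basal production; IC50 calculated.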

Sequence of human mPGES-1 (O14684 whole entry): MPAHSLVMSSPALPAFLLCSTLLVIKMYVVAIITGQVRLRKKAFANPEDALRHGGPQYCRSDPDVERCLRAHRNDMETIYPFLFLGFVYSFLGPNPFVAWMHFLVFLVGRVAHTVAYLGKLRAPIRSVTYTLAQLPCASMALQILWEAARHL

SMILES: Cc1ccc(NC(=O)c2cc(NC(=O)c3c(F)cccc3Cl)cc3[nH]c(N(C)C)nc23)cc1Cl [Example 205, 6-{[(2-Chloro-6-fluorophenyl)carbonyl]amino}-N-(3-chloro-4-methylphenyl)-2-(dimethylamino)-1H-benzimidazole-4-carboxamide hydrochloride]
- IC50 [1]: 3.7 nM
- IC50 [2]: 25.6 nM

SMILES: Cc1c(Cl)cccc1NC(=O)c1cc(NC(=O)c2ccccc2C(F)(F)F)cc2[nH]c(N3CCCC3)nc12 [Example 164, N-(3-Chloro-2-methylphenyl)-2-(pyrrolidin-1-yl)-6-({[2-(trifluoromethyl)phenyl]carbonyl}amino)-1H-benzimidazole-4-carb oxamide hydrochloride]
- IC50 [1]: 0.3 nM
- IC50 [2]: 13.3 nM

SMILES: Cc1c(Cl)cccc1NC(=O)c1cc(NC(=O)c2c(F)cccc2Cl)cc2[nH]c(C3CCCC3)nc12 [Example 126, 6-{[(2-Chloro-6-fluorophenyl)carbonyl]amino}-N-(3-chloro-2-methylphenyl)-2-cyclopentyl-1H-benzimidazole-4-carboxamide hydrochloride]
- IC50 [1]: 5.6 nM
- IC50 [2]: 13.1 nM

SMILES: COCc1nc2c(C(=O)NCC3CCCCC3)cc(NC(=O)c3ccccc3C(F)(F)F)cc2[nH]1 [Example 218, N-(Cyclohexylmethyl)-2-(methoxymethyl)-6-({[2-(trifluoromethyl)phenyl]carbonyl}amino)-1H-benzimidazole-4-carboxamide hydrochloride]
- IC50 [1]: 5.3 nM
- IC50 [2]: 42.8 nM

SMILES: COCc1nc2c(C(=O)Nc3cccc(Cl)c3C)cc(NC(=O)c3cc(Cl)ccc3Br)cc2[nH]1 [Example 107, 6-{[(2-Bromo-5-chlorophenyl)carbonyl]amino}-N-(3-chloro-2-methylphenyl)-2-(methoxymethyl)-1H-benzimidazole-4-carboxamide hydrochloride]
- IC50 [1]: 1.5 nM
- IC50 [2]: 42 nM

SMILES: COCc1nc2c(C(=O)Nc3cccc(Cl)c3C)cc(NC(=O)c3ccccc3S(C)(=O)=O)cc2[nH]1 [Example 212, N-(3-Chloro-2-methylphenyl)-2-(methoxymethyl)-6-({[2-(methylsulfonyl)phenyl]carbonyl}amino)-1H-benzimidazole-4-carboxamide]
- IC50 [1]: 42.3 nM
- IC50 [2]: 305 nM

SMILES: COCc1nc2c(C(=O)NCc3ccccc3)cc(NC(=O)c3ccccc3C(F)(F)F)cc2[nH]1 [Example 217, N-Benzyl-2-(methoxymethyl)-6-({[2-(trifluoromethyl)phenyl]carbonyl}amino)-1H-benzimidazole-4-carboxamide hydrochloride]
- IC50 [1]: 26.9 nM
- IC50 [2]: 317 nM

SMILES: Cc1c(Cl)cccc1NC(=O)c1cc(NC(=O)c2ccccc2C(F)(F)F)cc2[nH]c(NC[C@H]3CCCO3)nc12 [Example 169, N-(3-Chloro-2-methylphenyl)-2-{[(2R)-tetrahydrofuran-2-ylmethyl]amino}-6-({[2-(trifluoromethyl)phenyl]carbonyl}amino)-1H-benzimidazole-4-carboxamide hydrochloride]
- IC50 [1]: 2.4 nM
- IC50 [2]: 88.6 nM

SMILES: Cc1c(Cl)cccc1NC(=O)c1cc(NC(=O)c2ccccc2C(F)(F)F)cc2[nH]c(CC(=O)N3CCCC3)nc12 [Example 132, N-(3-Chloro-2-methylphenyl)-2-[2-oxo-2-(pyrrolidin-1-yl)ethyl]-6-({[2-(trifluoromethyl)phenyl]carbonyl}amino)-1H-benzimidazole-4-carboxamide hydrochloride]
- IC50 [1]: 2.2 nM
- IC50 [2]: 590 nM

SMILES: COCc1nc2c(C(=O)Nc3cccc4c3CCCC4)cc(NC(=O)c3ccccc3C(F)(F)F)cc2[nH]1 [Example 34, 2-(Methoxymethyl)-N-(5,6,7,8-tetrahydronaphthalen-1-yl)-6-({[2-(trifluoromethyl)phenyl]carbonyl}amino)-1H-benzimidazole-4-carboxamide hydrochloride]
- IC50 [1]: 4.9 nM
- IC50 [2]: 27.6 nM

SMILES: Cc1c(Cl)cccc1NC(=O)c1cc(NC(=O)c2ccccc2C(F)(F)F)cc2[nH]c(CC(N)=O)nc12 [Example 44, 2-(2-Amino-2-oxoethyl)-N-(3-chloro-2-methylphenyl)-6-({[2-(trifluoromethyl)phenyl]carbonyl}amino)-1H-benzimidazole-4-carboxamide hydrochloride]
- IC50 [1]: 4.1 nM
- IC50 [2]: 1100 nM

SMILES: COCc1nc2c(C(=O)Nc3ccccc3)cc(NC(=O)c3ccccc3C(F)(F)F)cc2[nH]1 [Example 214, 2-(Methoxymethyl)-N-phenyl-6-({[2-(trifluoromethyl)phenyl]carbonyl}amino)-1H-benzimidazole-4-carboxamide hydrochloride]
- IC50 [1]: 5.2 nM
- IC50 [2]: 60.7 nM

SMILES: O=C(Nc1cc(C(=O)NCc2ccccc2C(F)(F)F)c2nc([C@H]3CCCO3)[nH]c2c1)c1ccccc1C(F)(F)F [Example 65, 2-[(2R)-Tetrahydrofuran-2-yl]-N-[2-(trifluoromethyl)benzyl]-6-({[2-(trifluoromethyl)phenyl]carbonyl}amino)-1H-benzimidazole-4-carboxamide]
- IC50 [1]: 9.6 nM
- IC50 [2]: 72.2 nM

SMILES: Cc1c(Cl)cccc1NC(=O)c1cc(NC(=O)c2ccccc2C(F)(F)F)cc2[nH]c(N3CCC3)nc12 [Example 165, 2-(Azetidin-1-yl)-N-(3-chloro-2-methylphenyl)-6-({[2-(trifluoromethyl)phenyl]carbonyl}amino)-1H-benzimidazole-4-carboxamide hydrochloride]
- IC50 [1]: 1.3 nM
- IC50 [2]: 7.4 nM

SMILES: COCc1nc2c(C(=O)Nc3ccc(C)cc3C)cc(NC(=O)c3ccccc3C(F)(F)F)cc2[nH]1 [Example 29, N-(2,4-Dimethylphenyl)-2-(methoxymethyl)-6-({[2-(trifluoromethyl)phenyl]carbonyl}amino)-1H-benzimidazole-4-carboxamide hydrochloride]
- IC50 [1]: 3.5 nM
- IC50 [2]: 85.5 nM

SMILES: COCc1nc2c(C(=O)Nc3cccc(Cl)c3C)cc(NC(=O)c3c(Cl)cccc3C(F)(F)F)cc2[nH]1 [Example 113, N-(3-Chloro-2-methylphenyl)-6-({[2-chloro-6-(trifluoromethyl)phenyl]carbonyl}amino)-2-(methoxymethyl)-1H-benzimidazole-4-carboxamide hydrochloride]
- IC50 [1]: ≤ 0.1 nM
- IC50 [2]: 1.2 nM

SMILES: COCc1nc2c(C(=O)Nc3cccc(Cl)c3C)cc(NC(=O)c3ccccc3C(F)(F)F)cc2[nH]1 [Example 11, N-(3-chloro-2-methylphenyl)-2-(methoxymethyl)-6-({[2-(trifluoromethyl)phenyl]carbonyl}amino)-1H-benzimidazole-4-carboxamide]
- IC50 [1]: 6.6 nM
- IC50 [2]: 12.9 nM

SMILES: Cc1c(Cl)cccc1NC(=O)c1cc(NC(=O)c2ccccc2C(F)(F)F)cc2[nH]c(NC3CCCC3)nc12 [Example 141, N-(3-Chloro-2-methylphenyl)-2-(cyclopentylamino)-6-({[2-(trifluoromethyl)phenyl]carbonyl}amino)-1H-benzimidazole-4-carboxamide hydrochloride]
- IC50 [1]: 0.4 nM
- IC50 [2]: 36.5 nM

SMILES: Cc1nc2c(C(=O)NC3CCC3)cc(NC(=O)c3ccccc3C(F)(F)F)cc2[nH]1 [Example 16, N-Cyclobutyl-2-methyl-6-({[2-(trifluoromethyl)phenyl]carbonyl}amino)-1H-benzimidazole-4-carboxamide]
- IC50 [1]: 63.9 nM
- IC50 [2]: 1300 nM

SMILES: Cc1c(Cl)cccc1NC(=O)c1cc(NC(=O)c2ccccc2C(F)(F)F)cc2[nH]c(N)nc12 [Example 157, 2-Amino-N-(3-chloro-2-methylphenyl)-6-({[2-(trifluoromethyl)phenyl]carbonyl}amino)-1H-benzimidazole-4-carboxamide hydrochloride]
- IC50 [1]: 3.9 nM
- IC50 [2]: 10900 nM

SMILES: Cc1c(Cl)cccc1NC(=O)c1cc(NC(=O)c2ccccc2C(F)(F)F)cc2[nH]c(NCCCN(C)C)nc12 [Example 153, N-(3-Chloro-2-methylphenyl)-2-{[3-(dimethylamino)propyl]amino}-6-({[2-(trifluoromethyl)phenyl]carbonyl}amino)-1H-benzimidazole-4-carboxamide hydrochloride]
- IC50 [1]: 22.3 nM
- IC50 [2]: 618 nM

SMILES: Cc1ccc(NC(=O)c2cc(NC(=O)c3cc(Cl)ccc3Cl)cc3[nH]c(C4(C)CC4)nc23)cc1Cl [Example 211, N-(3-Chloro-4-methylphenyl)-6-{[(2,5-dichlorophenyl)carbonyl]amino}-2-(1-methylcyclopropyl)-1H-benzimidazole-4-carboxamide hydrochloride]
- IC50 [1]: 2.5 nM
- IC50 [2]: 8.5 nM

SMILES: Cc1c(Cl)cccc1NC(=O)c1cc(NC(=O)c2ccccc2C(F)(F)F)cc2[nH]c(N[C@@H](CO)C(C)C)nc12 [Example 171, N-(3-Chloro-2-methylphenyl)-2-{[(2R)-1-hydroxy-3-methylbutan-2-yl]amino}-6-({[2-(trifluoromethyl)phenyl]carbonyl}amino-1H-benzimidazole-4-carboxamide hydrochloride]
- IC50 [1]: 4.7 nM
- IC50 [2]: 97.8 nM

SMILES: Cc1c(Cl)cccc1NC(=O)c1cc(NC(=O)c2c(F)cccc2Cl)cc2[nH]c([C@H]3CCCO3)nc12 [Example 127, 6-{[(2-Chloro-6-fluorophenyl)carbonyl]amino}-N-(3-chloro-2-methylphenyl)-2-[(2R)-tetrahydrofuran-2-yl]-1H-benzimidazole-4-carboxamide hydrochloride]
- IC50 [1]: 6.3 nM
- IC50 [2]: 144 nM

SMILES: Cc1c(Cl)cccc1NC(=O)c1cc(NC(=O)c2c(F)cccc2Cl)cc2[nH]c(NCC(C)(C)CO)nc12 [Example 200, 6-{[(2-Chloro-6-fluorophenyl)carbonyl]amino}-N-(3-chloro-2-methylphenyl)-2-[(3-hydroxy-2,2-dimethylpropyl)amino]-1H-benzimidazole-4-carboxamide hydrochloride]
- IC50 [1]: 4.6 nM
- IC50 [2]: 108 nM
